Test results taken from patent US12624018B1, “Inhibitors of RIPK2 and medical uses thereof” (Odyssey Therapeutics, Inc., priority 2022, dated 2026).

target: T1, RIPK2 enzyme (Homo sapiens, UniProt O43353); test: RIPK2 inhibition (ADP-Glo Kinase Assay); assay type: biochemical; conditions: RIPK2 5 nM, ATP 150 μM, MBP substrate, read-out: RIPK2 IC50
T1 construct: purchased Carna 09-128
Method in brief: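 Human RIPK2 (5 nM) preincubated with compound 30 min at room temperature in 50 mM HEPES pH 7.5, 10 mM MgCl2, 2 mM DTT, 1 mM EGTA, 0.01% Brij-35, 0.05% BSA; native swine MBP as substrate. ADP formed quantified by ADP-Glo luminescence; percent inhibition relative to DMSO and no-enzyme controls.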

T1 sequence (O43353 1-299 limits assumed): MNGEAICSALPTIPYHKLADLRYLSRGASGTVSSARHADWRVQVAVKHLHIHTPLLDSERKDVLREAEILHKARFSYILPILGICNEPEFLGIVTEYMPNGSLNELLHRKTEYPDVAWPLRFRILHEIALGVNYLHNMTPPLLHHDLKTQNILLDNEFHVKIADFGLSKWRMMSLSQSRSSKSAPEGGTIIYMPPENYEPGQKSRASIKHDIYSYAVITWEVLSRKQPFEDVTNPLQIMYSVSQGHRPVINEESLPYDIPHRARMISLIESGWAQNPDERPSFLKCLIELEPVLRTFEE

SMILES	IC50 [nM]
CNC(=O)c1cc2c(Oc3cc(F)c(CC(=O)Nc4cnn(C(C)(C)C)c4)cc3C)ccnc2cc1OC [Compound 437, 4-(4-(2-((1-(tert-butyl)-1H-pyrazol-4-yl)amino)-2-oxoethyl)-5-fluoro-2-methylphenoxy)-7-methoxy-N-methylquinoline-6-carboxamide]	< 2.5
COc1ccc2ncnc(Oc3ccc(CC(=O)Nc4cc(C(C)(C)C)cnn4)c(F)c3)c2c1 [Compound 30, N-(5-(tert-butyl)pyridazin-3-yl)-2-(2-fluoro-4-((6-methoxy-quinazolin-4-yl)oxy)phenyl) acetamide]	7.2
CC(C)(C)n1cc(NC(=O)Cc2ccc(Oc3ccnc4ccc(S(=O)(=O)C5CC5)cc34)cc2F)cn1 [Compound 131, N-(1-(tert-butyl)-1H-pyrazol-4-yl)-2-(4-((6-(cyclopropylsulfonyl)quinolin-4-yl)oxy)-2-fluorophenyl)acetamide]	< 2.5
Cc1cc(CC(=O)Nc2cnn(C(C)(C)C)c2)c(F)cc1Oc1ccnc2ccc(S(=O)(=O)C3CNC3)cc12 [Compound 316, 2-(4-((6-(azetidin-3-ylsulfonyl)quinolin-4-yl)oxy)-2-fluoro-5-methylphenyl)-N-(1-(tert-butyl)-1H-pyrazol-4-yl)acetamide]	< 2.5
Cc1c(Oc2ccnc3ccc(C(=O)N4CC(C#N)C4)cc23)ccc(CC(=O)Nc2cnn(C(C)(C)C)c2)c1F [Compound 346, N-(1-(tert-butyl)-1H-pyrazol-4-yl)-2-(4-((6-(3-cyano-azetidine-1-carbonyl)quinolin-4-yl)oxy)-2-fluoro-3-methylphenyl) acetamide]	< 2.5
CC(C)(C)n1cc(NC(=O)Cc2ccc(Oc3ccnc4ccc(CS(C)(=O)=O)cc34)cc2F)cn1 [Compound 75, N-(1-(tert-butyl)-1H-pyrazol-4-yl)-2-(2-fluoro-4-((6-((methylsulfonyl)methyl)quinolin-4-yl)oxy)phenyl)acetamide]	< 2.5
Cc1c(Oc2ccnc3ccc(NS(C)(=O)=O)cc23)ccc(CC(=O)Nc2cnn(C(C)(C)C)c2)c1F [Compound 277, N-(1-(tert-butyl)-1H-pyrazol-4-yl)-2-(2-fluoro-3-methyl-4-((6-(methylsulfonamido)quinolin-4-yl)oxy)phenyl) acetamide]	< 2.5
Cc1cc(CC(=O)Nc2cnn(C(C)(C)C)c2)c(F)cc1Oc1ccnc2ccc(N3CCOC3=O)cc12 [Compound 414, N-(1-(tert-butyl)-1H-pyrazol-4-yl)-2-(2-fluoro-5-methyl-4-((6-(2-oxooxazolidin-3-yl)quinolin-4-yl)oxy)phenyl) acetamide]	< 2.5
Cc1c(Oc2ccnc3ccc(C(=O)N[C@H]4C[C@H](O)C4)cc23)ccc(CC(=O)Nc2cnn(C(C)(C)C)c2)c1F [Compound 401, 4-(4-(2-((1-(tert-butyl)-1H-pyrazol-4-yl)amino)-2-oxoethyl)-3-fluoro-2-methyl-phenoxy)-N-((1r,3r)-3-hydroxy-cyclobutyl) quinoline-6-carboxamide]	< 2.5
Cc1c(Oc2ccnc3ccc(C(C)(C)O)cc23)ccc(CC(=O)Nc2cnn(C(C)(C)C)c2)c1F [Compound 302, N-(1-(tert-butyl)-1H-pyrazol-4-yl)-2-(2-fluoro-4-((6-(2-hydroxypropan-2-yl)quinolin-4-yl)oxy)-3-methylphenyl)acetamide]	< 2.5
Cc1cc(CC(=O)Nc2cnn(C(C)(C)C)c2)ccc1Oc1ccnc2ccc(S(=O)(=O)C3COC3)cc12 [Compound 101, N-(1-(tert-butyl)-1H-pyrazol-4-yl)-2-(3-methyl-4-((6-(oxetan-3-ylsulfonyl)quinolin-4-yl)oxy)phenyl)acetamide]	< 2.5
Cc1cc(CC(=O)Nc2cnn(C(C)(C)C)c2)ccc1Oc1ccnc2ccc(O[C@H]3C[C@@H](N)C3)cc12 [Compound 123, 2-(4-((6-((1s,3s)-3-aminocyclo-butoxy)quinolin-4-yl)oxy)-3-methyl-phenyl)-N-(1-(tert-butyl)-1H-pyrazol-4-yl)acetamide]	< 2.5
Cc1cc(CC(=O)Nc2cnn(C(C)(C)C)c2)c(F)cc1Oc1ccnc2ccc(-c3ncccn3)cc12 [Compound 424, N-(1-(tert-butyl)-1H-pyrazol-4-yl)-2-(2-fluoro-5-methyl-4-((6-(pyrimidin-2-yl)quinolin-4-yl)oxy)phenyl)acetamide]	< 2.5

More lines, now with the values ahead:

IC50 [nM]	SMILES
< 2.5	CCP(=O)(CC)c1ccc2nccc(Oc3ccc(CC(=O)Nc4cnn(C(C)(C)C)c4)cc3C)c2c1 [Compound 180, N-(1-(tert-butyl)-1H-pyrazol-4-yl)-2-(4-((6-(diethylphosphoryl)quinolin-4-yl)oxy)-3-methylphenyl) acetamide]
< 2.5	CCN1CCC(Oc2ccc3nccc(Oc4ccc(CC(=O)Nc5cnn(C(C)(C)C)c5)cc4C)c3c2)CC1 [Compound 94, N-(1-(tert-butyl)-1H-pyrazol-4-yl)-2-(4-((6-((1-ethylpiperidin-4-yl)oxy)quinolin-4-yl)oxy)-3-methylphenyl) acetamide]
< 2.5	CNS(=O)(=O)c1ccc2nccc(Oc3ccc(CC(=O)Nc4cnn(C(C)(C)C)c4)cc3C)c2c1 [Compound 255, N-(1-(tert-butyl)-1H-pyrazol-4-yl)-2-(3-methyl-4-((6-(N-methylsulfamoyl)quinolin-4-yl)oxy)phenyl)acetamide]
< 2.5	Cc1cc(CC(=O)Nc2cnn(C(C)(C)C)c2)ccc1Oc1ccnc2ccc(C(=O)N3CC(F)C3)cc12 [Compound 208, N-(1-(tert-butyl)-1H-pyrazol-4-yl)-2-(4-((6-(3-fluoro-azetidine-1-carbonyl)quinolin-4-yl)oxy)-3-methyl-phenyl) acetamide]
< 2.5	Cc1cc(CC(=O)Nc2cnn(C(C)(C)C)c2)ccc1Oc1ccnc2ccc(S(=O)(=O)CC3CCOC3)cc12 (single isomer, unassigned) [Compound 242, N-(1-(tert-butyl)-1H-pyrazol-4-yl)-2-(3-methyl-4-((6-(((tetrahydrofuran-3-yl)methyl)sulfonyl)quinolin-4-yl)oxy)phenyl)acetamide]
< 2.5	Cc1cc(CC(=O)Nc2cnn(C(C)(C)C)c2)ccc1Oc1ccnc2ccc(OC3CC4(CNC4)C3)cc12 [Compound 211, 2-(4-((6-((2-azaspiro[3.3]heptan-6-yl)oxy)quinolin-4-yl)oxy)-3-methyl-phenyl)-N-(1-(tert-butyl)-1H-pyrazol-4-yl)acetamide]
< 2.5	Cc1cc(CC(=O)Nc2cnn(C(C)(C)C)c2)ccc1Oc1ccnc2ccc(S(=O)(=O)N3CC(F)C3)cc12 [Compound 259, N-(1-(tert-butyl)-1H-pyrazol-4-yl)-2-(4-((6-((3-fluoroazetidin-1-yl)sulfonyl)quinolin-4-yl)oxy)-3-methylphenyl)acetamide]
< 2.5	Cc1cc(CC(=O)Nc2cnn(C(C)(C)C)c2)ccc1Oc1ccnc2ccc(S(=O)(=O)C3CC3)cc12 [Compound 100, N-(1-(tert-butyl)-1H-pyrazol-4-yl)-2-(4-((6-(cyclopropylsulfonyl)quinolin-4-yl)oxy)-3-methylphenyl)acetamide]
< 2.5	Cc1cc(CC(=O)Nc2cnn(C(C)(C)C)c2)ccc1Oc1ccnc2ccc(OCCN)cc12 [Compound 222, 2-(4-((6-(2-aminoethoxy)quinolin-4-yl)oxy)-3-methyl-phenyl)-N-(1-(tert-butyl)-1H-pyrazol-4-yl)acetamide]
